What was measured:
[1] = system: non-small cell lung cancer cell line H460; experiment: In vitro human cancer cell line cytotoxicity (proliferation) assay in H460, CellTiter-Glo, 72 hours; format: cell-based; conditions: H460 cells, DMSO condition (no AKR1C3 inhibitor), read-out: CTG H460: Avg IC50 (nM) [Assay Condition: DMSO]
Procedure: Biological Example 1. In Vitro Human Cancer Cell Line Cytotoxicity Assay
IC50 values in nanomolar reported here were derived from in vitro proliferation assay data in non-small cell lung cancer cell line H460.
(§1) Specifically, exponentially growing cells were seeded at density of 3×10^3 cells per well in 96-well plate and incubated at 37° C. in 5% CO2, 95% air and 100% relative humidity for 24 hours before adding compounds. Compounds were solubilized in 100% DMSO at 10 mM. Compounds were added to the plate using Tecan D300e® digital Dispenser. After drug addition, the plates were incubated for an additional 72 hours at 37° C. in 5% CO2, 95% air and 100% relative humidity. At the end of the incubation, cell viability was quantified with CellTiter-Glo® assay.

[2] = system: non-small cell lung cancer cell line H460; experiment: H460 proliferation assay in the presence of 3 uM ASP9521 (AKR1C3 specific inhibitor); format: cell-based, human; conditions: H460 cells, CellTiter-Glo, 72 hours, in the presence of 3 uM ASP9521 added 4 hours prior to compounds; read-out: CTG H460: Avg IC50 (nM) [Assay Condition: ASP9521]
Procedure: as §1
To further confirm that compounds were activated by human AKR1C3, H460 proliferation assay were also performed in the presence of 3 uM […], an AKR1C3 specific inhibitor. ASP9521 were added to the plates 4 hours prior to the addition of compounds.

Row | SMILES | IC50 ([1]; Homo sapiens, NCI-H460, 72 h) [nM] | IC50 [2] [nM] | IC50 [1] [nM]
1 | Cc1ccnc(-c2ccc(Oc3c([N+](=O)[O-])ccc4c3CC[C@@H]4OP(=O)(N3CC3)N3CC3)cc2F)n1 [Example 267, (S)-4-(3-fluoro-4-(4-methylpyrimidin-2-yl)phenoxy)-5-nitro-2,3-dihydro-1H-inden-1-yl di(aziridin-1-yl)phosphinate] | < 10 | 639 | –
2 | O=[N+]([O-])c1ccc2c(c1Oc1ccc3c(c1)OC(F)(F)O3)CC[C@@H]2OP(=O)(N1CC1)N1CC1 [Example 385] | < 10 | 819 | –
3 | O=[N+]([O-])c1ccc2c(c1Oc1cccc(-c3ccccc3)c1)CCC2OP(=O)(N1CC1)N1CC1 (single isomer, unassigned) [Example 31] | – | 1550 | < 10
4 | Cc1cnc(-c2cccc(Oc3c([N+](=O)[O-])ccc4c3CC[C@@H]4OP(=O)(N3CC3)N3CC3)c2)s1 [Example 342] | 10 to 50 | 4270 | –
5 | O=[N+]([O-])c1ccc2c(c1Oc1cncc(C3CC3)c1)CC[C@@H]2OP(=O)(N1CC1)N1CC1 [Example 319] | < 10 | 521 | –
6 | Cc1cncc(-c2ccc(Oc3c([N+](=O)[O-])ccc4c3CC[C@H]4OP(=O)(N3CC3)N3CC3)cc2)n1 [Example 285] | – | 754 | < 10
7 | CN(C)C(=O)c1cccc(Oc2cc3c(cc2[N+](=O)[O-])CCC3OP(=O)(N2CC2)N2CC2)c1 (centres unmarked) [Example 146] | < 10 | 453 | –
8 | O=[N+]([O-])c1ccc2c(c1Oc1cccc(-c3cc(F)nn3CCO)c1)CC[C@@H]2OP(=O)(N1CC1)N1CC1 [Example 372] | < 10 | 332 | –
9 | O=C(c1cccc(Oc2c([N+](=O)[O-])ccc3c2CCC3OP(=O)(N2CC2)N2CC2)c1)N1CCC(F)(F)C1 (centres unmarked) [Example 102] | – | 919 | < 10
10 | O=C1c2ccc(Oc3c([N+](=O)[O-])ccc4c3CCC4OP(=O)(N3CC3)N3CC3)cc2CN1C1CC1 (centres unmarked) [Example 56] | < 10 | 447 | –
11 | O=C(c1cccc(Oc2cc3cc(COP(=O)(N4CC4)N4CC4)oc3cc2[N+](=O)[O-])c1)N1CCC1 [Example 535] | < 10 | 378 | –
12 | CC(OP(=O)(N1C[C@@H]1C)N1C[C@@H]1C)c1ccc([N+](=O)[O-])c(Oc2ccc(-c3ccc(F)cn3)c(F)c2)c1 (some centres unmarked) [Example 223] | – | 2590 | < 10
13 | O=C(c1cccc(Oc2c([N+](=O)[O-])ccc3c2CCC3OP(=O)(N2CC2)N2CC2)c1)N1CCCCC1 (centres unmarked) [Example 236] | – | 715 | < 10
14 | O=[N+]([O-])c1ccc2c(c1Oc1ccc(O)c(-c3ncccn3)c1)CC[C@@H]2OP(=O)(N1CC1)N1CC1 [Example 341] | < 10 | 1920 | –
15 | O=[N+]([O-])c1cc2oc(COP(=O)(N3CC3)N3CC3)cc2cc1Oc1ccc(-c2ccccc2)cc1 [Example 230, (5-([1,1′-biphenyl]-4-yloxy)-6-nitrobenzofuran-2-yl)methyl di(aziridin-1-yl)phosphinate] | < 10 | 846 | –
16 | O=C1OCCN1c1ccc(Oc2cc3c(cc2[N+](=O)[O-])CCC3OP(=O)(N2CC2)N2CC2)cc1 (centres unmarked) [Example 165] | – | 89.7 | < 10
17 | O=[N+]([O-])c1ccc2c(c1Oc1cccc(-c3ncccn3)c1)CCC2OP(=O)(N1CC1)N1CC1 (centres unmarked) [Example 84] | 10 to 50 | 1020 | –
18 | COc1cncc(Oc2c([N+](=O)[O-])ccc3c2CC[C@H]3OP(=O)(N2CC2)N2CC2)c1 [Example 462] | – | 917 | < 10
19 | O=[N+]([O-])c1ccc2c(c1Oc1ccc(F)c(-n3ncnn3)c1)CC[C@@H]2OP(=O)(N1CC1)N1CC1 [Example 441] | < 10 | 158 | –
20 | O=[N+]([O-])c1ccc2c(c1Oc1cccc(OCC3CC3)c1)CCC2OP(=O)(N1CC1)N1CC1 (centres unmarked) [Example 482] | – | 1340 | < 10
21 | CC(OP(=O)(N1C[C@@H]1C)N1C[C@@H]1C)c1ccc([N+](=O)[O-])c(Oc2cccc(C(=O)N(C)C)c2)c1 (some centres unmarked) [Example 211] | < 10 | 1270 | –
22 | CC(OP(=O)(N1C[C@H]1C)N1C[C@H]1C)c1ccc([N+](=O)[O-])c(Oc2ccc(C(=O)N(C)C)cc2)c1 (some centres unmarked) [Example 215] | < 10 | 3780 | –
23 | O=C(c1cc(Oc2c([N+](=O)[O-])ccc3c2CC[C@@H]3OP(=O)(N2CC2)N2CC2)ccc1F)N1CC(F)(F)C1 [Example 258] | – | 2060 | < 10
24 | O=[N+]([O-])c1cc2c(cc1Oc1ccc(-c3ccccn3)cc1)C(OP(=O)(N1CC1)N1CC1)CC2 (single isomer, unassigned) [Example 189] | – | 1190 | < 10
25 | CSc1ccc(Oc2c([N+](=O)[O-])ccc3c2CC[C@@H]3OP(=O)(N2CC2)N2CC2)cc1 [Example 466] | – | 975 | < 10

Row | SMILES | IC50 ([1]; Homo sapiens, NCI-H460, 72 h) [nM] | IC50 [2] [nM] | IC50 [1] [nM]
26 | C[C@H](OP(=O)(N1CC1)N1CC1)c1cc2cc(Oc3cccc(-c4ccccn4)c3)c([N+](=O)[O-])cc2o1 [Example 554] | – | 6070 | < 10
27 | CC(OP(=O)(N1C[C@@H]1C)N1C[C@@H]1C)c1ccc([N+](=O)[O-])c(Oc2ccc(-c3ccc(F)cn3)c(F)c2)c1 (some centres unmarked) [Example 221] | < 10 | 1210 | –
28 | O=[N+]([O-])c1ccc2c(c1Oc1cc(F)cc(-c3ncc(F)cn3)c1)CC[C@@H]2OP(=O)(N1CC1)N1CC1 [Example 364] | 10 to 50 | 4030 | –
29 | CCOc1cc(Oc2c([N+](=O)[O-])ccc3c2CC[C@@H]3OP(=O)(N2CC2)N2CC2)ccc1F [Example 493] | < 10 | 341 | –
30 | O=[N+]([O-])c1ccc2c(c1Oc1ccc(-n3cc(F)cn3)cc1)CCC2OP(=O)(N1CC1)N1CC1 (centres unmarked) [Example 422] | – | 821 | < 10
31 | CC(C)Oc1cccc(Oc2c([N+](=O)[O-])ccc3c2CCC3OP(=O)(N2CC2)N2CC2)c1 (racemic) [Example 451] | – | 1030 | < 10
32 | Cn1cnc2ccc(Oc3cc4c(cc3[N+](=O)[O-])CCC4OP(=O)(N3CC3)N3CC3)cc2c1=O (centres unmarked) [Example 195] | – | 4980 | 10 to 50
33 | O=[N+]([O-])c1ccc2c(c1Oc1cccc(-c3ncc(F)cn3)c1)CCC2OP(=O)(N1CC1)N1CC1 (centres unmarked) [Example 86] | 10 to 50 | 1230 | –
34 | C[C@H](OP(=O)(N1CC1)N1CC1)c1cc2cc(Oc3cccc(OC(F)(F)F)c3)c([N+](=O)[O-])cc2o1 (single isomer, unassigned) [Example 532] | < 10 | 1230 | –
35 | COc1cc(OCC2CC2)cc(Oc2c([N+](=O)[O-])ccc3c2CC[C@@H]3OP(=O)(N2CC2)N2CC2)c1 [Example 501] | < 10 | 1080 | –
36 | O=C(NC1CCC1)c1ccc(Oc2c([N+](=O)[O-])ccc3c2CCC3OP(=O)(N2CC2)N2CC2)cc1 (centres unmarked) [Example 52] | 10 to 50 | 700 | –
37 | O=[N+]([O-])c1ccc2c(c1Oc1ccc(OC3CCCC3)cc1)CCC2OP(=O)(N1CC1)N1CC1 (centres unmarked) [Example 491] | – | 1940 | < 10
38 | Cc1cnn(-c2ccc(Oc3c([N+](=O)[O-])ccc4c3CCC4OP(=O)(N3CC3)N3CC3)cc2)c1 (centres unmarked) [Example 425] | – | 5270 | < 10
39 | O=[N+]([O-])c1ccc2c(c1Oc1cncc(C3CC3)c1)CCC2OP(=O)(N1CC1)N1CC1 (racemic) [Example 315] | – | 679 | < 10
40 | O=C(c1cccc(Oc2c([N+](=O)[O-])ccc3c2CCC3OP(=O)(N2CC2)N2CC2)c1)N1CCOCC1 (single isomer, unassigned) [Example 126] | – | 159 | < 10
41 | O=C(c1cc(Oc2c([N+](=O)[O-])ccc3c2CC[C@@H]3OP(=O)(N2CC2)N2CC2)ccc1F)N1CCC1 [Example 257] | – | 1810 | < 10
42 | O=C1CCCCN1c1cccc(Oc2c([N+](=O)[O-])ccc3c2CCC3OP(=O)(N2CC2)N2CC2)c1 (centres unmarked) [Example 108] | – | 1710 | < 10
43 | O=C1c2cc(Oc3c([N+](=O)[O-])ccc4c3CC[C@H]4OP(=O)(N3CC3)N3CC3)ccc2CN1C1CC1 (single isomer, unassigned) [Example 38] | < 10 | 537 | –
44 | Cn1cnc(-c2cccc(Oc3c([N+](=O)[O-])ccc4c3CCC4OP(=O)(N3CC3)N3CC3)c2)cc1=O (centres unmarked) [Example 118] | – | 4510 | 10 to 50
45 | Cc1noc(-c2ccc(Oc3c([N+](=O)[O-])ccc4c3CC[C@@H]4OP(=O)(N3CC3)N3CC3)cc2)n1 [Example 283] | – | 1460 | < 10
46 | O=[N+]([O-])c1ccc2c(c1Oc1ccc(S(=O)(=O)C3CC3)cc1)CC[C@@H]2OP(=O)(N1CC1)N1CC1 [Example 512] | < 10 | 83.3 | –
47 | O=[N+]([O-])c1ccc2c(c1Oc1ccc(-c3ccc(F)cc3)cc1)CCC2OP(=O)(N1CC1)N1CC1 (centres unmarked) [Example 22] | – | 1640 | 10 to 50
48 | O=[N+]([O-])c1ccc2c(c1Oc1ccc(-c3ccc(F)cc3)cc1)CCC2OP(=O)(N1CC1)N1CC1 (centres unmarked) [Example 21] | < 10 | 1420 | –
49 | O=[N+]([O-])c1ccc2c(c1Oc1cccc(OC3CC3)c1)CC[C@H]2OP(=O)(N1CC1)N1CC1 [Example 467] | – | 4160 | < 10

— patent US20260167656A1, “PHOSPHORAMIDATE COMPOUNDS AND USES THEREOF” (ALLORION THERAPEUTICS INC, priority 2022, published 2026)
